Results reported in patent US20090163406A1, “COMPOSITIONS AND METHODS FOR DIAGNOSING AND TREATING BRAIN CANCER AND IDENTIFYING NEURAL STEM CELLS” (THE REGENTS OF THE UNIVERSITY OF CALIFORNIA, priority 2004, published 2009).
“Also recorded” adds a separate entry of the source.

Tests used:
Daoy cells = experiment: Daoy medulloblastoma cell growth (total cell number); type: cell-based, human; details: cyclopamine alone or combined with MELK siRNA
Experimental: Transient Transfection. […] For transfection of plasmid vectors, the cells were incubated with reagents for 6 hours with the primary progenitor cells, and for 24 hours with N2a cells. […] Incubation with siRNA complex was 6 hours with primary cells and 24 hours with cell lines.
We then examined whether the effect of MELK siRNA is for cell survival or cell proliferation.
Propium iodide-labeled tumor populations were measured for cell death assay after treatment of siRNA for two days (e).

[1] = tested on: dividing GFAP positive cells; experiment: Ganciclovir ablation in GFAP promoter HSV-TK transgenic mice, SEZ immunohistochemistry; type: in vivo, mouse; details: 21 days ganciclovir, vs non-transgenic controls
Text: PBK/TOPK positive cells are mitotically active progenitors in vivo: The expression pattern in vitro as a mitotically active kinase, coupled with in vivo data, provided evidence that PBK/TOPK was expressed in several mitotically active progenitor cell populations in the central nervous system, but not in quiescent, slower cycling putative stem cells. To more conclusively establish PBK/TOPK expression in stem and progenitor cells in vivo, we examined PBK/TOPK in transgenic mice expressing the herpes simplex virus thymidine kinase gene (HSV-TK) under control of the GFAP promoter (see, e.g., Bush, T. G., et al., Neuron (1999) 23:297-308; Garcia, supra (2004)). Since HSV-TK phosphorylates the drug ganciclovir and phosphorylated ganciclovir kills cells at mitosis, when these mice are given ganciclovir, all dividing GFAP positive cells are killed. […] Three transgenic mice were treated for 21 days with ganciclovir followed by BrdU injections for two days, and then processed for immunohistochemistry. […] This finding provided direct in vivo evidence that PBK/TOPK positive cells arise from proliferating GFAP positive cells, consistent with PBK/TOPK being expressed exclusively by proliferating progenitor cells in the adult brain. […]
Cell counts: For immunocytochemistry, all cells in 10 random 40× fields were counted. […]

[2] = tested on: primary cerebellar granule cells precursors (CGPs); experiment: Cell cycle analysis and cell counts in cultured cerebellar granule cell precursors; type: cell-based, mouse; details: for fraction of cells in S-phase: CGP with mitogen, 50 uM, 24 hours, flow cytometric DNA content
Experimental: FIG. 9F: described below. […] Yellow circle indicates normally cycling cells.
Culture of Cerebellar Granule Cell Precursors: Cerebella were harvested from P6-P8 CD1 mouse pups and digested in Papain with DNase, and dissociated in PBS BSA with fire polished pipettes followed by a cell strainer. Granule cell precursors were then separated on a 35%/65% percoll step gradient at 1500 g for 12 minutes as previously described (Wechsler-Reya, supra (1999)). Cells were either transfected at this point or plated at 250K cells/well onto Poly-L-Lysine coated glass coverslips in 24 well plates in 330 uls of Neurobasal Media containing 2% B27 supplement, 1 mM sodium pyruvate, 2 mM glutamine, and 1% penicillin/streptomycin, supplemented with 2.5 ug/ml mouse recombinant Sonic Hedge Hog (R&D systems 461-5H-025) as noted in the text, above.
Cell counts: For immunocytochemistry, all cells in 10 random 40× fields were counted. For the stem cell ablation experiments we used stereo investigator to count all PBK/TOPK cells in the SEZ ventral to the anterior horn at the level of the anterior commissure bilaterally in 3 replicate animals. T-tests were performed in Microsoft Excel.

[3] = tested on: neural progenitors cultured from E12 mouse telencephalic germinal zones; experiment: Cell number and cell cycle of attached E12 telencephalic neural progenitors in bFGF
[4] = CGP, twenty-four hours of P38 inhibition

## CC1=C2C[C@H]3[C@@H](CC=C4C[C@@H](O)CC[C@@]43C)[C@@H]2CC[C@]12O[C@@H]1C[C@H](C)CN[C@H]1[C@H]2C [cyclopamine]
Daoy cells
  Daoy cell growth / proliferation with shh-Gli1 pathway inhibitor: inhibition of cell growth

## Nc1nc(O)c2ncn(COC(CO)CO)c2n1 [ganciclovir]
[1]
  Dcx positive cells in SEZ: complete ablation

## C[S+]([O-])c1ccc(-c2nc(-c3ccncc3)c(-c3ccc(F)cc3)[nH]2)cc1 (centres unmarked) [SB203580]
[2]
  fraction of cells in S-phase: reduces fraction of S-Phase cells; also recorded: dramatic decrease in the fraction of cells in S-phase
[2]; listed as sb203580
  fraction of cells in S-phase: significant decrease in the number of cells re-entering S-phase
[2]; CGP without mitogen treatment
  cell number in the absence of mitogen: no impact on cell number
[2]; [4]
  number of NeuN positive cells: without significantly impacting; also recorded: without any impact
  number of PBK/TOPK positive cells: reduces PBK/TOPK positive cells; also recorded: reduction in the number of the PBK/TOPK positive cells
[2]; proliferating neuronal progenitors
  total number of cells: decrease in the total number of cells
[3]; in the presence of bFGF
  cycling cells assessed by flow cytometry: decrease in cycling cells
[3]; long exposures or high doses, 48 hours at highest dose
  DNA aneuploidy: resulted in DNA aneuploidy; also recorded: accumulation of DNA-aneuploid cells
[3]; varying doses, in the presence of bFGF
  cell number: dose dependant decrease in proliferation; also recorded: dose dependant decrease in cell number
